Assay [1] relates to Mus musculus. In words: Antidepressant activity in po dosed mouse after 4 hrs by Dopa potentiation test relative to pemoline. The assay is classed as functional.
Assay [2] has as its system Mus musculus. In words: Antidepressant activity in mouse at […] after 4 hrs by Dopa potentiation test. The format is functional, organism-based.
In assay [3] the test system is Mus musculus. The assay can be described thus: Anticonvulsant activity in mouse assessed as protection against tonic extensor component of audiogenic seizures at 100 mg/kg, po. The assay is classed as functional.

Active and inactive are the calls of the source. No cut-off for these calls is given here.

The values below come from ChEMBL document CHEMBL3272320, “Antidepressant and anticonvulsant activity of 1-(5-phenyl-4-oxazolin-2-yl)-4-substituted piperazines” (1976).

With `O=C1N=C(N2CCN(C(=O)/C=C/c3ccc(F)cc3)CC2)OC1c1ccccc1` (configuration not stated), in the assay with Mus musculus [1], the “fold change (FC)” value is listed as 2. Moreover, the outcome in the assay on Mus musculus [2] was Active.
The matching figures for `COc1cc(/C=C/C(=O)N2CCN(C3=NC(=O)C(c4ccccc4)O3)CC2)cc(Br)c1OC` (configuration not stated): 3 and “Active”.
As to `CNC(=O)N1CCN(C2=NC(=O)C(c3ccccc3)O2)CC1` (configuration not stated), the Activity with Mus musculus [3] came to 50%. Besides, the result in the assay on Mus musculus [2] was Active.
The matching figures for `CCN(CC)C(=O)N1CCN(C2=NC(=O)C(c3ccccc3)O2)CC1` (configuration not stated): 60% and “Active”.
Turning to `COc1cc(/C=C/C(=O)N2CCN(C3=NC(=O)C(c4ccccc4)O3)CC2)cc(OC)c1OC` (configuration not stated), the “fold change (FC)” value in the assay on Mus musculus [1] is 2.5. Besides, the result in the assay with Mus musculus [2] was Active.
In the case of `NC1=NC(=O)C(c2ccccc2)O1` (configuration not stated) [PEMOLINE], the Activity in the assay with Mus musculus [3] is given as 90%. Besides, the result in the assay on Mus musculus [2] was Active.
Turning to `NC(=O)N1CCN(C2=NC(=O)C(c3ccccc3)O2)CC1` (configuration not stated), in the assay on Mus musculus [3], the Activity worked out at 10%. Besides, in the assay on Mus musculus [2], the result was Active.
Regarding `COc1ccc(NC(=O)N2CCN(C3=NC(=O)C(c4ccccc4)O3)CC2)cc1` (configuration not stated), the Activity in the assay with Mus musculus [3] is given as 20%. Also, the outcome in the assay on Mus musculus [2] was Active.
In the case of `COc1ccc(/C=C/C(=O)N2CCN(C3=NC(=O)C(c4ccccc4)O3)CC2)cc1` (configuration not stated), the outcome with Mus musculus [2] was Active.
In the case of `O=C1N=C(N2CCN(C(=O)Nc3ccc(Cl)cc3)CC2)OC1c1ccccc1` (configuration not stated), in the assay with Mus musculus [3], the Activity turned out to be 50%. In addition, the result in the assay with Mus musculus [2] was Active.
Take `COc1cc(/C(C)=C/C(=O)N2CCN(C3=NC(=O)C(c4ccccc4)O3)CC2)cc(OC)c1OC` (configuration not stated): the outcome in the assay with Mus musculus [2] was Active.
Turning to `O=C1N=C(N2CCN(C(=O)Nc3ccccc3)CC2)OC1c1ccccc1` (configuration not stated), the Activity in the assay on Mus musculus [3] came out at 50%. Besides, in the assay on Mus musculus [2], the outcome was Active.
